target: T1, Type-1 angiotensin II receptor (Homo sapiens, UniProt P30556); assay: antagonism of angiotensin II type 1 receptor – cell-based, uHTS hits, selectivity assay for APJ receptor antagonist project, dose response (AID 463214)
T1 sequence (P30556 whole entry): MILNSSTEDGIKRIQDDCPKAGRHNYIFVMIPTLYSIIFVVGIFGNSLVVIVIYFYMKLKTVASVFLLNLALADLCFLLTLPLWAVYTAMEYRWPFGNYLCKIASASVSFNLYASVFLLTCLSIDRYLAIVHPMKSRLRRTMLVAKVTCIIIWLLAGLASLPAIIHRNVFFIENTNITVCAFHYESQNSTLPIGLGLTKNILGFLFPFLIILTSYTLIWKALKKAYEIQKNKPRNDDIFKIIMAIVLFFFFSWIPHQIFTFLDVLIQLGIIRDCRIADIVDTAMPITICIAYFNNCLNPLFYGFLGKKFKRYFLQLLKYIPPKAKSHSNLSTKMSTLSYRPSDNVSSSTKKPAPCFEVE

Structure (SMILES)	IC50 [µM]
Cc1[nH]n(C(N)=S)c(=O)c1N=Nc1ccc([N+](=O)[O-])cc1 [3-Methyl-4-(4-nitro-phenylazo)-5-oxo-4,5-dihydro-pyrazole-1-carbothioic acid amide]	35.3
CCOC(=O)c1[nH]nc(C(O)c2ccc(Cl)cc2)c1-c1ccccc1 (configuration not stated) [SMR000271792]	39.9
COC(=O)c1[nH]nc(C(O)c2ccc(Cl)cc2)c1-c1ccc(OC)cc1 (configuration not stated) [MLS000702189]	28.4
CCOC(=O)C1C(C)=NC2=C(C(=O)CC(c3cccs3)C2)C1c1cccs1 (configuration not stated) [2-Methyl-5-oxo-4,7-di-thiophen-2-yl-1,4,5,6,7,8-hexahydro-quinoline-3-carboxylic acid ethyl ester]	36
O=C1C=CC([N+](=O)[O-])=CC1CN=Nc1ccc(Cl)nn1 (configuration not stated) [SMR000184399]	3.63
COc1ccc2c(c1)C(O)C(=O)[C@H](c1ccc(OC)c(Br)c1)O2 (some centres not stated)	34.6
Cc1ncc(C=O)c(CNNc2ccc(C(F)(F)F)cn2)c1O	28.7
